# Test results published in ChEMBL document CHEMBL6182947, “Discovery of Phloroglucinol Derivatives as a New Type of Nonnucleoside Inhibitors with Anti-herpes Simplex Virus Type 1 Activity” (J Med Chem, 2025).
# Active and inactive are the calls of the source. No cut-off for these calls is given here.
# Tests used:
# [1] = Cytotoxicity against African green monkey Vero cells assessed as cell viability measured after 24 hrs incubation by MTT assay; type: toxicity, cell-based; conditions: chlorocebus sabaeus
# [2] = system: Human alphaherpesvirus 1; test: Antiviral activity against ACV-resistant HSV1 Blue infected in African green monkey Vero cells assessed as reduction of virus-induced cytopathic effect measured after 48 hrs of incubation; type: functional, organism-based; conditions: Human alphaherpesvirus 1, Blue
# [3] = Selectivity index, ratio of CC50 for Cytotoxicity against african green monkey Vero cells to IC50 for Antiviral activity against HSV1 infected in African green monkey Vero cells; type: toxicity, cell-based; conditions: read-out: Selectivity Index
# [4] = system: Human alphaherpesvirus 1; test: Antiviral activity against ACV-resistant HSV1 153 infected in African green monkey Vero cells assessed as reduction of virus-induced cytopathic effect measured after 48 hrs of incubation; type: functional, organism-based; conditions: Human alphaherpesvirus 1, 153, Vero
# [5] = system: Human alphaherpesvirus 1; test: Antiviral activity against HSV1 infected in African green monkey Vero cells assessed as reduction of virus-induced cytopathic effect measured after 48 hrs of incubation; type: functional, organism-based; conditions: Human alphaherpesvirus 1, Vero
# [6] = system: Human alphaherpesvirus 1; test: Antiviral activity against HSV1 infected in African green monkey Vero cells assessed as reduction of virus yield at 2 uM treated for 0 to 14 hrs of post-infection; type: functional, organism-based; conditions: time 0-14 hrs
# [7] = system: Human alphaherpesvirus 1; test: Antiviral activity against HSV1 expressing GFP infected in African green monkey Vero cells assessed as fold reduction in viral titer green fluorescence protein expression measured after 48 hrs post-infection by immunofluorescence based fluorescence microscopy; type: functional
# [8] = system: Human alphaherpesvirus 1; test: Antiviral activity against HSV1 expressing GFP infected in African green monkey Vero cells assessed as fold reduction in viral titer green fluorescence protein expression at 2 uM measured after 48 hrs post-infection by immunofluorescence based fluorescence microscopy; type: functional
Structure (SMILES),CC50 at 24 h [1],IC50 [2],selectivity ratio [3],IC50 [4],IC50 [5],Activity [6],Activity [7],fold change (FC) [8]
CCCCC(=O)c1c(O)cc2c(c1O)C(CC(C)C)C1=C(O2)C(C)(C)C(=O)C(C)(C)C1=O (configuration not stated),8000 nM,1200 nM,20,1200 nM,500 nM,–,–,–
CC(C)CC(=O)c1c(O)cc2c(c1O)C(Cc1ccccc1)C1=C(O2)C(C)(C)C(=O)C(C)(C)C1=O (configuration not stated),13000 nM,600 nM,21.7,600 nM,600 nM,–,–,–
CC(C)CC(=O)c1c(O)cc2c(c1O)C(c1ccccc1)C1=C(O2)C(C)(C)C(=O)C(C)(C)C1=O (configuration not stated),11000 nM,400 nM,24.4,300 nM,450 nM,–,–,–
CCC(=O)c1c(O)cc2c(c1O)C(CC(C)C)C1=C(O2)C(C)(C)C(=O)C(C)(C)C1=O (configuration not stated),7000 nM,1400 nM,13.9,1300 nM,700 nM,–,–,–
CC(C)CC1C2=C(Oc3cc(O)c(C(=O)Cc4ccccc4)c(O)c31)C(C)(C)C(=O)C(C)(C)C2=O (configuration not stated),8500 nM,300 nM,21.2,500 nM,400 nM,–,–,–
CC(C)CC(=O)c1c(O)cc2c(c1O)[C@@H](CC(C)C)C1=C(O2)C(C)(C)[C@@H](O)C(C)(C)C1=O,10000 nM,–,< 6.67,–,3750 nM,Active,–,–
CC(C)CC(=O)c1c(O)cc2c(c1O)C(C1CCC1)C1=C(O2)C(C)(C)C(=O)C(C)(C)C1=O (configuration not stated),5000 nM,500 nM,10,400 nM,500 nM,–,–,–
CC(C)CC(=O)c1c(OS(=O)(=O)C(F)(F)F)cc2c(c1O)C(CC(C)C)C1=C(O2)C(C)(C)C(=O)C(C)(C)C1=O (configuration not stated),20000 nM,1000 nM,16.7,600 nM,1200 nM,–,–,–
CC(C)CC(=O)c1c(O)cc2c(c1O)C(C1CCCC1)C1=C(O2)C(C)(C)C(=O)C(C)(C)C1=O (configuration not stated),8000 nM,500 nM,11.4,500 nM,700 nM,–,–,–
CC(C)CC1C2=C(Oc3cc(O)c(C(=O)CCc4ccccc4)c(O)c31)C(C)(C)C(=O)C(C)(C)C2=O (configuration not stated),7000 nM,200 nM,15.6,400 nM,450 nM,–,–,–
CCC1C2=C(Oc3cc(O)c(C(=O)CC(C)C)c(O)c31)C(C)(C)C(=O)C(C)(C)C2=O (configuration not stated),6000 nM,600 nM,7.5,500 nM,800 nM,–,–,–
CC(C)CC(=O)c1c(O)c(Br)c2c(c1O)C(CC(C)C)C1=C(O2)C(C)(C)C(=O)C(C)(C)C1=O (configuration not stated),7000 nM,600 nM,11.7,700 nM,600 nM,–,–,–
CC(C)CC1C2=C(Oc3cc(O)c(C(=O)Cc4ccc(F)cc4)c(O)c31)C(C)(C)C(=O)C(C)(C)C2=O (configuration not stated),6000 nM,200 nM,17.1,200 nM,350 nM,–,–,–
CC(C)CC(=O)c1c(O)cc2c(c1O)[C@H](CC(C)C)C1=C(O2)C(C)(C)[C@@H](O)C(C)(C)C1=O,7500 nM,–,3,–,2500 nM,–,–,–
CC(=O)c1c(O)cc(O)c2c1OC1=C(C(=O)C(C)(C)C(=O)C1(C)C)C2CC(C)C (configuration not stated),> 100000 nM,–,> 10,–,10000 nM,–,–,–
CC(C)CC1C2=C(Oc3cc(O)c(C(=O)C(C)C)c(O)c31)C(C)(C)C(=O)C(C)(C)C2=O (configuration not stated),7000 nM,300 nM,17.8,400 nM,630 nM,–,–,–
CCCC(=O)c1c(O)cc2c(c1O)C(CC(C)C)C1=C(O2)C(C)(C)C(=O)C(C)(C)C1=O (configuration not stated),10000 nM,800 nM,–,600 nM,500 nM,–,–,–

Structure (SMILES),CC50 at 24 h [1],IC50 [2],selectivity ratio [3],IC50 [4],IC50 [5],Activity [6],Activity [7],fold change (FC) [8]
CC(C)CC1C2=C(Oc3cc(O)c(C=O)c(O)c31)C(C)(C)C(=O)C(C)(C)C2=O (configuration not stated),16000 nM,–,3.56,–,4500 nM,–,–,–
CC(C)CC1C2=C(Oc3cc(O)c(C(=O)CCCCCl)c(O)c31)C(C)(C)C(=O)C(C)(C)C2=O (configuration not stated),8000 nM,600 nM,16,500 nM,450 nM,–,–,–
CC(C)CC1C2=C(Oc3cc(O)c(C(=O)C4CCCC4)c(O)c31)C(C)(C)C(=O)C(C)(C)C2=O (configuration not stated),9000 nM,300 nM,15.5,300 nM,580 nM,–,–,–
CCCCC1C2=C(Oc3cc(O)c(C(=O)CC(C)C)c(O)c31)C(C)(C)C(=O)C(C)(C)C2=O (configuration not stated),10000 nM,600 nM,10,400 nM,1000 nM,–,–,–
CCCC1C2=C(Oc3cc(O)c(C(=O)CC(C)C)c(O)c31)C(C)(C)C(=O)C(C)(C)C2=O (configuration not stated),9000 nM,300 nM,18,500 nM,500 nM,–,–,–
CC(=O)Oc1cc2c(c(OC(C)=O)c1C(=O)CC(C)C)C(CC(C)C)C1=C(O2)C(C)(C)C(=O)C(C)(C)C1=O (configuration not stated),7000 nM,300 nM,14,400 nM,500 nM,–,–,–
CC(C)CC1C2=C(Oc3c(C(=O)C4CCC4)c(O)cc(O)c31)C(C)(C)C(=O)C(C)(C)C2=O (configuration not stated),10000 nM,–,< 2.72,–,5500 nM,–,–,–
CC1(C)C(=O)C2=C(Oc3cc(O)cc(O)c3C2c2ccccc2)C(C)(C)C1=O (configuration not stated),18000 nM,–,2.25,–,8000 nM,–,–,–
CC(C)CC(=O)c1c(O)c(Cl)c2c(c1O)C(CC(C)C)C1=C(O2)C(C)(C)C(=O)C(C)(C)C1=O (configuration not stated),14000 nM,300 nM,35,400 nM,400 nM,–,Dose-dependent-effect,3549
CC(C)CC1C2=C(Oc3cc(O)c(C(=O)C4CCCCC4)c(O)c31)C(C)(C)C(=O)C(C)(C)C2=O (configuration not stated),7000 nM,250 nM,35,300 nM,200 nM,–,–,–
CC(C)CC1C2=C(Oc3cc(O)c(C(=O)c4ccccc4)c(O)c31)C(C)(C)C(=O)C(C)(C)C2=O (configuration not stated),10000 nM,–,4,–,2500 nM,–,–,–
CC(C)CC(=O)c1c(O)cc2c(c1O)C(C1CCCCC1)C1=C(O2)C(C)(C)C(=O)C(C)(C)C1=O (configuration not stated),10000 nM,500 nM,12.5,500 nM,800 nM,–,–,–
CC(C)CC(=O)c1c(O)cc2c(c1O)C(CC(C)C)C1=C(CCCC1=O)O2 (configuration not stated),16000 nM,–,5.33,–,3000 nM,–,–,–
CC(C)CC1C2=C(Oc3c(C(=O)C(C)C)c(O)cc(O)c31)C(C)(C)C(=O)C(C)(C)C2=O (racemic),12800 nM,–,3.65,–,3500 nM,–,–,–
CC(C)CC(=O)c1c(O)cc2c(c1O)[C@H](CC(C)C)C1=C(O2)C(C)(C)C(=O)C(C)(C)C1=O,7280 nM,–,18.7,–,390 nM,–,–,–
CC(C)CC(=O)c1c(O)cc2c(c1O)C(C(C)C)C1=C(O2)C(C)(C)C(=O)C(C)(C)C1=O (configuration not stated),10000 nM,600 nM,15.9,700 nM,630 nM,–,–,–
